Measured values reported in ChEMBL document CHEMBL5329151, “Novel pirfenidone derivatives: synthesis and biological evaluation” (2023).
Active and inactive are the calls of the source. The rule behind the calls is not given here.

Assays:
3T3-L1 [1] = assay: Inhibition of fibronectin secretion in mouse 3T3-L1 cells assessed as reduction in accumulation of fibronectin in extracellular matrix incubated for 48 hrs by ELISA (reference value: 1389.10 +/- 9.19 ng/ml); type: functional, cell-based; details: dose 0.5-2 mmol/L
3T3-L1 [2] = assay: Inhibition of cell growth in mouse 3T3-L1 cells after 24 to 48 hrs by MTT assay; type: functional, cell-based; details: time 24-48 hrs
3T3-L1 [3] = assay: Inhibition of cell growth in mouse 3T3-L1 cells at 0.5 to 2 mmol/L by MTT assay; type: functional, cell-based; details: dose 0.5-2 mmol/L, time 24-48 hrs, TDE = time-dependent effect
3T3-L1 [4] = assay: Inhibition of cell growth in mouse 3T3-L1 cells at […] after 24 to 48 hrs by MTT assay; type: functional; details: dose 2 mmol/L, time 24-48 hrs

Compound | inhibition (3T3-L1 [1]) | inhibition (3T3-L1 [2]) | inhibition (3T3-L1 [3]) | inhibition at 2000 µM (3T3-L1 [4])
O=c1ccccn1-c1ccc(C2=NC3CCCCC3N2)cc1 (stereo not drawn) | Active | Dose-Dependent Effect | Tde | 95.4%
Cc1ccc(=O)n(-c2ccccc2)c1 | – | Dose-Dependent Effect | – | –
NC(=S)N/N=C\c1ccc(-n2ccccc2=O)cc1 | Active | Dose-Dependent Effect | Tde | –
O=c1ccccn1-c1ccc(/C=N\Nc2ccccc2)cc1 | Active | Dose-Dependent Effect | Tde | –
NC(=O)N/N=C\c1ccc(-n2ccccc2=O)cc1 | Active | Dose-Dependent Effect | Tde | –
N/N=C/c1ccc(-n2ccccc2=O)cc1 | Active | Dose-Dependent Effect | Tde | –
O=c1ccccn1-c1ccc(C2=NCCCN2)cc1 | Active | Dose-Dependent Effect | Tde | –
O=c1ccccn1-c1ccc(C2=NCCN2)cc1 | Active | Dose-Dependent Effect | Tde | –
